{"source": "patent US11672786B2", "about": "“Methods of treating diseases associated with repeat instability” (The Hospital for Sick Children, priority 2016, dated 2023)", "tested_on": "HPRT1 exons 2 and 3, HD primary fibroblast cell line GM09197", "experiment": "HPRT1 sequence analysis by SMRT-CCS sequencing (general mutagen test)", "type": "cell-based, human", "from_the_text": "Towards assessing whether NA-treatment acted as a general mutagen to sequences other than CAG slip-outs, the high read accuracy and depth of single molecule, real time, circular consensus sequencing (SMRT-CCS) was harnessed. Single-molecule sequencing was done on the HPRT1 gene—widely used as a surrogate indicator of the global effect of induced genetic variation. Single-molecule sequencing can detect mutations at frequencies below 0.5% with no false positives. Panel A of FIG. 13 is a schematic of HPRT1 sequencing for mutation detection. Briefly, cells were grown under identical conditions differing only by the addition of NA (50 μM) or saline, DNAs were isolated, HPRT1 exons 2 and 3 PCR amplified and sequenced. Panel B of FIG. 13 are graphs showing the comparison of sequence variations between NA-treated and saline-treated samples. We chose to compare the single-molecule sequence reads of individual X chromosome-linked HPRT1 alleles (exons 2 and 3, 2,897 nucleotides) from the HD patient-derived cells that had been NA- or saline-treated. In this manner, each read would represent a single cell. Graphs show the distribution of sequence variants by relative mutation rate between three experimental replicates of NA-treated and saline-treated cells sequenced with PacBio single-molecule long reads.\nDNAs were extracted from three independent NA treatments of the HD primary fibroblast cell line GM09197 and from three independent untreated control cells. HPRT1 exons 2 and 3 were amplified using the high fidelity Platinum Taq DNA Polymerase (Invitrogen, Cat #11304) and the primers shown in Table 1. Amplification products were analyzed using single molecule, real-time (SMRT) sequencing on the PacBio RSII instrument (see FIG. 13A).\nSpecifically, a ˜2.8 kb PCR product spanning exons two and three of HPRT1 was sequenced for three replicates of HD patient-derived cells in both NA- and saline-treated colonies on a Pacific Biosciences (PacBio) RSII with P6-C4v2 chemistry, 360 minute movies, and one SMRT cell per replicate/treatment combination. Individual molecules from the original cell colony were represented by single long reads from the corresponding SMRT cell. PacBio's SMRTbell construct allows a single molecule to be sequenced one or more times in a single long read based on the number of “passes” the sequencing polymerase makes around the SMRTbell insert. An average of 99,023 distinct reads were sequenced per SMRT cell. The resulting long reads contained an average of ˜7 passes through the insert sequence. The average median insert length per SMRT cell was 2,873 bp. […] Based on these filters, an average of 1,343 consensus sequences per replicate/treatment pair were produced with a range of up to 2,402 sequences. […] To estimate the mutation rate for each replicate/treatment combination, the number of times a specific variant occurred was calculated between high-quality PacBio consensus reads at a specific position in the human reference (GRCh38) divided by the total number of high-quality reads aligned across each position. For each replicate, the relative mutation rate was calculated between NA- and saline-treated cells as the mutation rate for NA-treated cells minus the rate for saline-treated cells and identified excess mutation rates based on an absolute relative rate >0.5%. […]"}
{"substance": "naphthyridine-azaquinolone", "values": [{"measurement": "distinct sites with extreme relative mutation rates, number", "setting": "50 μM NA, across 2,897 positions, control 84", "result": 113}, {"measurement": "distinct sites with extreme relative mutation rates, percent", "setting": "50 μM NA, control 2.9%", "result": 3.9, "unit": "%"}, {"measurement": "variants with extreme mutation rates (absolute relative rate >0.5%), number", "setting": "50 μM NA, of the 15,277 variants across three replicates, saline 101", "result": 149}, {"measurement": "variants with extreme mutation rates, percent", "setting": "50 μM NA, saline 0.7%", "result": 1.0, "unit": "%"}, {"measurement": "mutation rates NA- versus saline-treated", "setting": "p=0.1083, two-sample Kolmogorov-Smirnov test", "result": "not significantly different"}]}
